{"source": "patent US20250041284A1", "about": "“TREATMENT OF NEUROLOGICAL DISORDERS” (Praxis Precision Medicines, Inc., priority 2022, published 2025)", "key": {"hNaV1.6": {"molecular_target": "T1, hNaV1.6 (Homo sapiens, UniProt Q9UQD0)", "T1 construct": "expressed in transfected cells; host or cells: HEK cells", "T1 sequence (Q9UQD0 whole entry)": "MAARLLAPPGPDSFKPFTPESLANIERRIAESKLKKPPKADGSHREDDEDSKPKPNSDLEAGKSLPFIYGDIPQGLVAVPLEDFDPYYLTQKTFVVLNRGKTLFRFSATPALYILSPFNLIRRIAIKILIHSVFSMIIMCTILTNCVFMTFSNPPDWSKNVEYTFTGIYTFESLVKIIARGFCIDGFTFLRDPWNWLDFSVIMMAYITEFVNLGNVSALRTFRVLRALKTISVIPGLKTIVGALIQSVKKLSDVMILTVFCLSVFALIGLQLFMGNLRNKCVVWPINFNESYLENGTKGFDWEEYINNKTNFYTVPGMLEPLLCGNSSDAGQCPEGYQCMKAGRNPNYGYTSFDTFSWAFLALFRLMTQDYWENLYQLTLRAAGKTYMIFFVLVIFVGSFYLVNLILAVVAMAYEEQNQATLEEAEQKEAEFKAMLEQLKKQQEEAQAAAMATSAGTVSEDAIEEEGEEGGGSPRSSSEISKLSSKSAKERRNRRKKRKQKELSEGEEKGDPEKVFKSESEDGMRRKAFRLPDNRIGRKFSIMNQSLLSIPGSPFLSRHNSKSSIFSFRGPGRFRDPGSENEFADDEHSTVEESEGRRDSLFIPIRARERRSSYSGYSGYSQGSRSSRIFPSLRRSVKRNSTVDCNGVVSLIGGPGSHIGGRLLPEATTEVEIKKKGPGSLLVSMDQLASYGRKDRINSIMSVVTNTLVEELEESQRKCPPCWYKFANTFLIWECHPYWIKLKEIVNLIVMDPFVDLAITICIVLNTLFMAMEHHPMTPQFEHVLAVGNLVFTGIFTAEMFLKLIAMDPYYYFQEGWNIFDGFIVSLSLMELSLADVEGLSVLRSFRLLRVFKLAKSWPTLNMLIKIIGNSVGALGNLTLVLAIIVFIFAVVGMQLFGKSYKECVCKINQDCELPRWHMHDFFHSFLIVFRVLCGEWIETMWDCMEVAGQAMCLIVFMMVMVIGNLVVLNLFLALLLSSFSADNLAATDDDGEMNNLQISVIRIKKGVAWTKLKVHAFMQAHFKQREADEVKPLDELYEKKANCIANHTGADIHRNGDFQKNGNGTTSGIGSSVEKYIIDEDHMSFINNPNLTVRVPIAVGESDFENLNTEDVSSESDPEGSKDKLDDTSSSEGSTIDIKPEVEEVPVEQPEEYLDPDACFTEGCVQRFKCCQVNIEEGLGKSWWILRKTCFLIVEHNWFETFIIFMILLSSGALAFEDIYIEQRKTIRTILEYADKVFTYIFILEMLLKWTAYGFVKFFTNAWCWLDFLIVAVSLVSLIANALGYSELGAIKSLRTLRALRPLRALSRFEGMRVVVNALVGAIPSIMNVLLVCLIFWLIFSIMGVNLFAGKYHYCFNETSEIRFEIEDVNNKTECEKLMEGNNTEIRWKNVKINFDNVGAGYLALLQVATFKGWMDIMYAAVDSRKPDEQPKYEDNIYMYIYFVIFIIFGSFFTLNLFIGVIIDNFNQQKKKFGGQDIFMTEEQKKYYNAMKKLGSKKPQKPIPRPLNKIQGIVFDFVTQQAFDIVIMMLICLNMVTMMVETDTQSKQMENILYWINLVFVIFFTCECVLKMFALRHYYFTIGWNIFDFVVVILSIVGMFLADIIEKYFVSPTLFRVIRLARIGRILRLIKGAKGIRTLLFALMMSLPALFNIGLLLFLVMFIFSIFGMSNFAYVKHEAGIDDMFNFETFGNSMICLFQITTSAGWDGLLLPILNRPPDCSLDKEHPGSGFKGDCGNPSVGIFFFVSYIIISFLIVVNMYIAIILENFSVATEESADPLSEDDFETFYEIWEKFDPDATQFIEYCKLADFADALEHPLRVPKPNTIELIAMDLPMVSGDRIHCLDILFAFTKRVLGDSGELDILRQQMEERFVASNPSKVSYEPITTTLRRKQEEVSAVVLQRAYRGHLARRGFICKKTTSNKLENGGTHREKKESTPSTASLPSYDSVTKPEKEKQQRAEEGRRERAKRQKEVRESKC", "experiment": "Apparent binding (KON) and unbinding (KOFF) rates inferred from INa inhibition kinetics", "assay_type": "cell-based"}, "[1]": {"experiment": "Spontaneous locomotor activity (sLMA) (Example 8)", "assay_type": "in vivo, mouse", "conditions": "male, CD-1, mouse, in vivo, po, 30 min before test, distance travelled", "experimental": "(§1) Male CD-1 mice (Vital River, Beijing, China) approximately 6 weeks old were used for the study. Body weights were between 25 g and 35 g at the time of experiment.\n(§2) Treatment was conducted using Compound 1 and 35% 2-hydroxypropyl-β-cyclodextrin (35% HPBCD, used as a negative control). Compound 1 stock solution was prepared fresh each experiment day in 35% HPBCD and protected from light. The stock solution was diluted with vehicle for lower doses.\n(§3) The spontaneous locomotor activity (sLMA) test for each study was carried out over three days, with mice from each treatment group tested each day. The treatment groups included mice dosed with vehicle (35% HPBCD) and with Compound 1 at the dose of 3 mg/kg, 5.6 mg/kg, 10 mg/kg and 20 mg/kg. Mice were randomly assigned into one of the treatment groups.\n(§4) A single dose of Compound 1 (3 mg/kg, 5.6 mg/kg, 10 mg/kg and 20 mg/kg) or vehicle (35% HPBCD) was administered to mice via oral gavage 30 minutes prior to testing. Immediately prior to conducting the sLMA test, a brief neurological assessment was performed. Each animal was visually assessed for sedation and ataxia.\n(§5) Activity was recorded by overhead cameras and was analyzed offline. Video tracking analysis software was used to determine total distance travelled in millimeters. Distance travelled was also calculated in 5-minute bins.\n(§6) All statistical analyses were conducted using GraphPad Prism 9.3. Means were combined and standard error was calculated using the Satterthwaite Approximation to combined standard deviations. […] TD50 and TC50 values were calculated from these fit curves."}, "[2]": {"tested_on": "locomotor activity of male CD-1 mice", "experiment": "Spontaneous locomotor activity (sLMA) (Example 8)", "assay_type": "in vivo, mouse", "experimental": "as §1, §2, §3, §4, §5, §6"}, "[3]": {"tested_on": "MES-induced seizures in male CD-1 mice", "experiment": "Maximal electroshock (MES) induced seizure, latency (Example 3)", "assay_type": "in vivo, mouse", "experimental": "Food and water were available ad libitum.\nDosing solutions were prepared on each experiment day. […] VPA was prepared in saline (Vehicle 1). All solutions were protected from light. All compounds and vehicles were dosed at 10 ml/kg.\nThe MES test was carried out over two days with half of the mice from each treatment group being tested on each day. Mice were brought to the test room at least one hour before the start of the experiment. […] Mice were randomly assigned into one of the six treatment groups.\nAnimals were p.o. (oral) administered Compound 1 or 35% HPBCD (Vehicle 2) 30 minutes prior to the MES test or i.p. administered VPA or saline (Vehicle 1) 30 minutes prior to the MES test.\nA Grass S88x (Grass Technologies of Astro-Med, Inc., West Warwick, RI) Stimulus Isolation Unit (A385, WPI Inc., USA) was set to deliver a 50 mA square-wave stimulus, with a 0.8 second duration, a pulse width of 10 msec, and a frequency of 50 Hz. A pair of custom stainless steel electrodes were soaked in 0.2% Agar, and then the subject received bilateral transauricular stimulation through ear-clip electrodes. During the stimulation, mice were manually restrained. They were then released into the observation cage for convulsion observation for 60 seconds immediately after stimulation. Each mouse was observed continuously by individuals blinded to treatment conditions and results were recorded.\nAnti-seizure assessment endpoints were: (1) latency of hindlimb tonic flexion; (2) latency of hindlimb tonic extension; (3) total #hindlimb tonic flexions; (4) total #hindlimb tonic extensions; (5) latency to death; and (6) mortality rate.\nFollowing the experiment, mice were anesthetized with CO2 and terminal plasma and brain tissue samples were collected. […] The supernatant plasma was pipetted into Eppendorf tubes.\nAn aliquot of 20 μL unknown sample, calibration standard, quality control, dilute quality control, single blank and double blank sample was added to a 1.5 mL tube. […]\nFrom these fitted curves, ED50 and EC50 values were calculated."}, "[4]": {"conditions": "recovery from inhibition of hNaV1.6 INa"}}, "note": "Several values for one entry are separate records, joined by “and”; a condition that tells them apart may be missing. Identical values can stand only once.", "data": [{"smiles": "CCOC(F)(F)c1nnc2ccc(-c3cnc(OCC(F)(F)F)c(F)c3)cn12", "note": "[Compound 1]", "values": [{"measurement": "apparent KON", "setting": "hNaV1.6; development of inhibition of hNaV1.6 INa", "value": "4.2e+06 M⁻¹ s⁻¹ and 4.168e+06 M⁻¹ s⁻¹"}, {"measurement": "kon", "setting": "hNaV1.6; development of inhibition of hNaV1.6 INa, read-out: apparent KON", "value": "4.2e+06", "unit": "M⁻¹ s⁻¹"}, {"measurement": "KON versus carbamazepine", "setting": "hNaV1.6; fold faster", "value": "> 1,500 ×"}, {"measurement": "KOFF slower than carbamazepine", "setting": "hNaV1.6; fold slower unbinding", "value": 33, "unit": "×"}, {"measurement": "apparent KOFF", "setting": "hNaV1.6; [4]", "value": "1.7 s⁻¹ and 1.72 s⁻¹"}, {"measurement": "koff", "setting": "hNaV1.6; [4]", "value": 1.7, "unit": "s⁻¹"}, {"measurement": "TD50", "setting": "[1]", "value": 10.4, "unit": "mg/kg"}, {"measurement": "sedation or ataxia", "setting": "[2]; 3 mg/kg and 5.6 mg/kg p.o.", "value": "No sedation or ataxia was observed"}, {"measurement": "mice with sedation and/or ataxia", "setting": "[2]; 10 mg/kg p.o.", "value": "five"}, {"measurement": "mice with sedation and/or ataxia", "setting": "[2]; 20 mg/kg p.o.", "value": "eight"}, {"measurement": "sLMA brain TC50", "setting": "[2]; brain concentration", "value": 1914, "unit": "ng/g"}, {"measurement": "sLMA plasma TC50", "setting": "[2]; plasma concentration", "value": 1.256, "unit": "µg/mL"}, {"measurement": "latency to seizures following bilateral transauricular stimulation", "setting": "[3]; 1 mg/kg p.o.", "value": "significantly increased latency to seizures"}, {"measurement": "block of evoked seizures (MES)", "setting": "[3]; 10 mg/kg", "value": "completely blocked evoked seizures"}, {"measurement": "ED50", "setting": "[3]; Mus musculus, po, 30 min before MES, latency to seizures", "value": 0.67, "unit": "mg/kg"}]}]}
